From a melting point compilation (Tetko et al.; mined from patent text by program, amines drawn as free bases though some values may be those of a salt)

SMILES | melting point
COc1ccc(/C(C)=C/c2ccncc2)cc1OC1CCCC1 | 78 to 79 °C
Cc1cccc(C)c1CNc1cc(Br)cc2c1nc(N(C)C)n2C | 157 to 158 °C
CCCC1=C(C(=O)OCC)C(c2ccccc2Cl)c2cn(C(=O)OC(C)(C)C)nc2N1 (centres undefined) | 144 to 147 °C
O=C(Cc1ccc(F)cc1F)c1ccc(I)cc1F | 81 to 82 °C
CC(C)(C)c1ccc(Oc2cccc(C(=O)NCCN(O)C(N)=O)c2)cc1 | 100 to 102 °C
c1ccc2c(C3CCCc4cncn43)noc2c1 (centres undefined) | 250 to 252 °C
COc1ccc2c(c1OC)CCC=C2C#N | 139 to 140 °C
COC(=O)c1ccccc1C(=O)c1ccc(CBr)cc1 | 88.2 to 91.5 °C
C=CCOc1ccc2oc(C(=O)c3ccc(OC)cc3)c(C)c2c1 | 74 to 76 °C
COc1ccc(C=C2c3ccccc3C(=NO)c3ccccc32)cc1O | 140 °C
CCC1(CC)CCSc2c(CC#Cc3ccc(C=O)cc3)cccc21 | 55 to 63 °C
CC(Cl)C(=O)c1ccc2c(c1)CCCC(=O)N2 (centres undefined) | 230 °C
CCC1C(C)=NN=C(c2ccc(O)c(O)c2)c2cc(OC)c(O)cc21 (centres undefined) | 254 to 255 °C
NS(=O)(=O)c1cc(C(=O)O)cc([N+](=O)[O-])c1Nc1ccccc1 | 261 to 262 °C
O=C(O)C(CCSc1ccccc1)Oc1ccc(C(F)(F)F)cc1 (centres undefined) | 108 to 110 °C
CCON=C(C(C)=NOCc1ccccc1C(=COC)C(=O)OC)c1ccc(Oc2ccc(Cl)cc2)cc1 | 87 to 89 °C
CN(C)S(=O)(=O)c1cnc(NC(=O)[C@H](CC2CCCC2)c2ccc(S(C)(=O)=O)c(Cl)c2)cn1 | 100 °C
CC(C)(C)c1ccc(C(=O)CCCN2CCC(C(=O)c3nc4ccccc4n3Cc3ccc(F)cc3)CC2)cc1 | 105 to 106 °C
COc1ccc(-c2c(C(=O)O)c(=O)[nH]c3ccc(C)cc23)cc1OC | 240 to 241 °C
O=C1c2[nH]c3cc(O)ccc3c2CC1CC1CCN(Cc2ccccc2)CC1 (centres undefined) | 250 to 252 °C

SMILES | melting point
O=C(O)c1cccc(C(CC(=O)c2ccc(F)cc2)CC(=O)c2ccc(F)cc2)c1 | 205 to 207 °C
CCC1(CCCCN2CCN(c3cccc(Cl)c3)CC2)C(=O)Nc2cc(F)ccc21 (centres undefined) | 116 to 117 °C
CC(=O)OC1CSC(Oc2ccc(C)nc2-c2ccoc2)C(OC(C)=O)C1OC(C)=O (centres undefined) | 117 °C
CCOC(=O)c1sc(Cl)nc1-c1cccc(C)c1 | 41 to 42 °C
O=C1CNc2cc(Br)c(Cl)cc2N1 | 230 to 232 °C
Cc1ncoc1-c1ccc(C#N)cc1 | 120 to 121 °C
COC(=O)CN1CCC[C@H](OCc2cc(C(F)(F)F)cc(C(F)(F)F)c2)[C@@H]1c1ccccc1 (relative stereo) | 60 to 70 °C
CC(C#Cc1ccc(C=Cc2ccccc2)o1)N(O)C(N)=O (centres undefined) | 168 °C
COc1ccc(OCc2ccccc2)c2c1CN(Nc1ccncc1)CC2 | 151 to 152 °C
Nc1ccc(CS(=O)(=O)NCCc2ccccc2)cc1 | 123 to 125 °C
CC1(C)CC(=O)Nc2ccc(-c3cccc(F)c3)cc21 | 190 to 192 °C
CCCc1c(OCc2ccc(C(=O)OC)cc2)ccc(C(C)=O)c1O | 99.5 to 100 °C
O=C(O)[C@H](Cc1cccc(OCC(F)(F)F)c1)[C@@H](O)c1ccc(F)cc1 (racemic) | 142 to 143 °C
CCOC(=O)c1cn(-c2cccc(Oc3ccc(Br)cn3)c2)cn1 | 103 to 105 °C
Cc1ccc2c(c1)c(N1CCN(C(=O)c3cccs3)CC1)c(C#N)c(=O)n2CCN1CCOCC1 | 207 °C
COc1ccc(CCCN2C=CC=C3C2=Nc2ccc(Cl)cc2S(=O)(=O)N3C)cc1 | 62 to 65 °C
CNC(=O)c1cc2nc(C(F)(F)F)ccc2c(Cl)c1NC(=O)c1cc(C(F)(F)F)nn1-c1ncccc1Cl | 235 to 237 °C
CCCCCCCCCCCCNC(=O)CS(=O)(=O)Nc1c(C(C)C)cccc1C(C)C | 83 to 85 °C
ICCCC1(c2ccccc2)OCCO1 | 71 to 73 °C
